# Laboratory results published in patent US12583826B2, “[(1,5-diphenyl-1H-1,2,4-triazol-3-yl)oxy]acetic acid derivatives and salts thereof, crop protection compositions comprising them, methods for producing them and use thereof as safeners” (Bayer Aktiengesellschaft, priority 2019, dated 2026).
# Assays:
# [1] = test system: summer wheat (TRZAS; cv. Triso); experiment: Absolute action: reduction of damage by mesosulfuron-methyl on summer wheat, greenhouse post-emergence; type: in vivo; conditions: for Absolute reduction in herbicide damage (damage without safener minus damage with safener): mesosulfuron-methyl 20 g/ha; for Herbicide damage with compound of the formula (I): then mesosulfuron-methyl 20 g/ha, visual 0-100% scale, 14-21 days after application
# Protocol: (§1) 2.1 Absolute Action of Selected Compounds of the Invention Using the Example of Reduction of Damage by Mesosulfuron-Methyl on Summer Wheat (TRZAS) The seeds of the crop plants to be treated are laid out in sandy loam in wood fiber or plastic pots (diameter ˜4 cm), covered with soil and grow in a greenhouse under good conditions for germination and growth. The trial plants were treated at the early leaf stage (BBCH10—BBCH12). In the course of this, the inventive compounds of the general formula (I) formulated in the form of wettable powders (WP) were sprayed onto the above-ground parts of the plants as an aqueous suspension with a water application rate corresponding to 800 l/ha with addition of wetting agent (e.g. 0.2% agrotin) in the specified dose. This was followed by the application of the herbicide. For this purpose, mesosulfuron-methyl, formulated in the form of water-dispersible granules (WG), was sprayed onto the above-ground parts of the plants in the form of an aqueous dispersion with a water application rate corresponding to 800 l/ha with addition of wetting agent (e.g. 0.2% agrotin) in a dose of 20 g/ha. The dose of the herbicide was chosen here such that it causes visually apparent damage (min. 30%, max. 75%) compared to untreated crop plants at the evaluation time on a control group of crop plants without safener treatment that were included in the same trial. After application, the plants were cultivated under good growth conditions in a greenhouse. The damage was visually assessed 14-21 days after application. The damage effect was assessed visually on a scale of 0-100% by comparison with untreated control plants, and averaged over 2-3 repeats per treatment. Examples: • 0%=no noticeable effect compared to the untreated plant • 20%=the treated plant population has 20% damage compared to the untreated control population (e.g. growth height, leaf damage, etc.) • 100%=treated plants completely damaged/killed.
# [2] = test system: summer barley (HORVS; cv. Montoya); experiment: Absolute action: reduction of damage by mesosulfuron-methyl on summer barley, greenhouse post-emergence; type: in vivo; conditions: for Absolute reduction in damage (difference): mesosulfuron-methyl 20 g/ha, damage without minus with safener; for Herbicide damage with compound of the formula (I) (%): then mesosulfuron-methyl 20 g/ha, visual 0-100% scale, 14-21 days after application
# Protocol: as §1, with “2.2 Absolute Action” for “2.1 Absolute Action”, “on Summer Barley (HORVS) The seeds” for “on Summer Wheat (TRZAS) The seeds”, “treated are aid out in” for “treated are laid out in”, “soil and grown in a” for “soil and grow in a”, “leaf stage (BBCE10-BBCH12). In the” for “leaf stage (BBCH10—BBCH12). In the”, “control population (e.g.: growth height,” for “control population (e.g. growth height,”
Structure (SMILES),Absolute reduction in herbicide damage (damage without safener minus damage with safener) ([1]; safener 125 g a.i./ha),Herbicide damage with compound of the formula (I) ([1]; safener 125 g a.i./ha),Absolute reduction in damage (difference) ([2]; safener 125 g a.i./ha),Herbicide damage with compound of the formula (I) (%) ([2]; safener 125 g a.i./ha),Absolute reduction in damage (difference) ([2]; safener 500 g a.i./ha),Herbicide damage with compound of the formula (I) (%) ([2]; safener 500 g a.i./ha),Absolute reduction in herbicide damage (damage without safener minus damage with safener) ([1]; safener 500 g a.i./ha),Herbicide damage with compound of the formula (I) ([1]; safener 500 g a.i./ha),other results
COC(=O)COc1nc(-c2ccc(Cl)cc2F)n(-c2ccc(F)cc2F)n1 [I.46-38],33%,30%,40%,23%,43%,20%,–,–,–
CCOC(=O)COc1nc(-c2ccccc2)n(-c2ccc(F)cc2F)n1 [I.2-38],–,–,–,–,–,–,–,–,Absolute reduction in herbicide damage (damage without safener minus damage with safener) ([1]; safener 1000 g/ha): 20%; Herbicide damage with compound of the formula (I) ([1]; safener 1000 g/ha): 30%
CCOC(=O)COc1nc(-c2ccc(Cl)cc2F)n(-c2ccc(Cl)cc2F)n1 [I.47-49],30%,30%,50%,10%,–,–,–,–,–
O=C(O)COc1nc(-c2ccc(Cl)cc2F)n(-c2ccc(Cl)cc2F)n1 [I.48-49],37%,23%,40%,20%,60%,0%,40%,20%,–
O=C(O)COc1nc(-c2ccc(Cl)cc2F)n(-c2ccccc2F)n1 [I.48-2],27%,3%,20%,27%,27%,20%,–,–,–
"O=C(O)COc1nc(-c2ccc(F)cc2F)n(-c2ccc(Cl)cc2)n1 [I.42-7, {[1-(4-Chlorophenyl)-5-(2,4-difluorophenyl)-1H-1,2,4-triazol-3-yl]oxy}acetic acid]",–,–,–,–,–,–,–,–,Absolute reduction in herbicide damage (damage without safener minus damage with safener) ([1]; safener 250 g/ha): 43%; Herbicide damage with compound of the formula (I) ([1]; safener 250 g/ha): 0%; Absolute reduction in damage (difference) ([2]; safener 250 g a.i./ha): 60%; Herbicide damage with compound of the formula (I) (%) ([2]; safener 250 g a.i./ha): 0%
COC(=O)COc1nc(-c2ccccc2F)n(-c2ccc(F)cc2F)n1 [I.4-38],27%,30%,–,–,50%,7%,–,–,–
O=C(O)COc1nc(-c2ccc(Cl)cc2F)n(-c2ccc(Cl)cc2Cl)n1 [I.48-32],30%,30%,40%,20%,50%,10%,37%,23%,–
CCOC(=O)COc1nc(-c2ccccc2)n(-c2ccc(F)cc2)n1 [I.2-4],–,–,–,–,–,–,–,–,Absolute reduction in herbicide damage (damage without safener minus damage with safener) ([1]; safener 1000 g/ha): 20%; Herbicide damage with compound of the formula (I) ([1]; safener 1000 g/ha): 30%
CCOC(=O)COc1nc(-c2ccc(Cl)cc2F)n(-c2ccc(F)cc2F)n1 [I.47-38],27%,13%,40%,17%,47%,10%,–,–,–
COC(=O)COc1nc(-c2ccc(Cl)cc2F)n(-c2ccccc2F)n1 [I.46-2],46%,7%,23%,37%,33%,27%,–,–,–
COC(=O)COc1nc(-c2ccc(Cl)cc2Cl)n(-c2ccc(Cl)cc2Cl)n1 [I.43-32],33%,30%,26%,37%,33%,30%,43%,20%,–
COC(=O)COc1nc(-c2ccc(Cl)cc2Cl)n(-c2ccc(F)cc2F)n1 [I.43-38],30%,33%,26%,37%,–,–,33%,30%,–
O=C(O)COc1nc(-c2ccccc2F)n(-c2ccc(Cl)cc2Cl)n1 [I.6-32],–,–,–,–,–,–,–,–,Absolute reduction in damage (difference) ([2]; safener 250 g a.i./ha): 20%; Herbicide damage with compound of the formula (I) (%) ([2]; safener 250 g a.i./ha): 40%
CCOC(=O)COc1nc(-c2ccc(F)cc2)n(-c2ccc(F)cc2F)n1 [I.11-38],–,–,–,–,–,–,–,–,Absolute reduction in herbicide damage (damage without safener minus damage with safener) ([1]; safener dose not given): 20%; Herbicide damage with compound of the formula (I) ([1]; safener dose not given): 30%
O=C(O)COc1nc(-c2ccccc2)n(-c2ccc(F)cc2)n1 [I.3-4],–,–,–,–,–,–,–,–,Absolute reduction in herbicide damage (damage without safener minus damage with safener) ([1]; safener 250 g/ha): 20%; Herbicide damage with compound of the formula (I) ([1]; safener 250 g/ha): 30%; Absolute reduction in herbicide damage (damage without safener minus damage with safener) ([1]; safener 1000 g/ha): 27%; Herbicide damage with compound of the formula (I) ([1]; safener 1000 g/ha): 23%
CCOC(=O)COc1nc(-c2ccccc2F)n(-c2ccc(Cl)cc2Cl)n1 [I.5-32],–,–,–,–,–,–,–,–,Absolute reduction in herbicide damage (damage without safener minus damage with safener) ([1]; safener 1000 g/ha): 27%; Herbicide damage with compound of the formula (I) ([1]; safener 1000 g/ha): 30%
CCOC(=O)COc1nc(-c2ccc(F)cc2F)n(-c2ccc(F)cc2F)n1 [I.41-38],–,–,–,–,–,–,–,–,Absolute reduction in damage (difference) ([2]; safener 250 g a.i./ha): 23%; Herbicide damage with compound of the formula (I) (%) ([2]; safener 250 g a.i./ha): 30%; Absolute reduction in damage (difference) ([2]; safener 1000 g a.i./ha): 23%; Herbicide damage with compound of the formula (I) (%) ([2]; safener 1000 g a.i./ha): 30%
O=C(O)COc1nc(-c2ccc(Cl)cc2Cl)n(-c2ccccc2F)n1 [I.45-2],–,–,–,–,–,–,20%,30%,–
O=C(O)COc1nc(-c2ccc(Cl)cc2Cl)n(-c2ccc(Cl)cc2Cl)n1 [I.45-32],23%,40%,–,–,–,–,30%,33%,–
COc1ccccc1-c1nc(OCC(=O)O)nn1-c1ccccc1F [I.24-2],–,–,–,–,–,–,20%,30%,–
CCOC(=O)COc1nc(-c2ccc(Cl)cc2)n(-c2ccccc2)n1 [I.20-1],–,–,–,–,–,–,–,–,Absolute reduction in herbicide damage (damage without safener minus damage with safener) ([1]; safener 250 g/ha): 30%; Herbicide damage with compound of the formula (I) ([1]; safener 250 g/ha): 13%; Absolute reduction in herbicide damage (damage without safener minus damage with safener) ([1]; safener 1000 g/ha): 36%; Herbicide damage with compound of the formula (I) ([1]; safener 1000 g/ha): 7%
